Assay results taken from article PMC12828148, “Engineered cyclic peptide targeting ITGA5 disrupts tumor–stroma interaction to overcome desmoplasia and resistance in pancreatic ductal adenocarcinoma” (Acta Pharmaceutica Sinica. B, 2025).
Ends that are not written are not given here.

Columns and labels:
[1] = system: PANC-1 homospheroids / PANC-1 + PSC heterospheroids; assay: 3D spheroid growth and ATP viability, PANC-1 model; type: cell-based; conditions: PANC-1 homo- and PANC-1 + PSC hetero-spheroids, treated Days 3 and 6, size Days 3, 6, 9, n = 20
Method: Homo-spheroids containing hPSCs, PANC-1, or MIA PaCa-2, and hetero-spheroids containing 1:1 combination of hPSCs and PANC-1/MIA PaCa-2 were generated in a 96-well round bottom plates precoated with 1% Pluronic F-127 (Sigma–Aldrich). The self-assembled spheroids were exposed to cyAV3.3, gemcitabine, or both after 3 days and 6 days. Before each treatment, images of spheroids were made using inverted microscope. The diameters of spheroids were measured digitally using ImageJ software. After 9 days, spheroids were moved from the wells to a fresh 96-well plate. CellTiter-Glo 3D reagent (Promega, WI, USA) was added to each well and the luminescence signal was measured after 30 min using Varioskan LUX bioluminescent reader (Thermo Scientific) to assess the viability.

[2] = system: PANC-1 + PSC and MIA PaCa-2 + PSC co-injection xenograft tumors; conditions: PANC-1 + PSC and MIA PaCa-2 + PSC co-injection xenografts, i.p. treatment, n = 4 per group per tumor type
Method: Six-week-old male CB17 SCID mice (Janvier Labs, Le Genest-Saint-Isle, France) were subcutaneously injected with a 2:1 mixture of 4 × 10^6 human PSCs and 2 × 10^6 PANC-1 or MIA PaCa-2 cells. Tumor growth was assessed twice a week. Tumor-bearing mice (±100 mm^3) were treated with phosphate buffered saline (PBS), cyAV3.3, gemcitabine, or combination of gemcitabine and cyAV3.3 intraperitoneally (i.p). Animals were euthanized, tumors and other organs were harvested and embedded in Cryomatrix (Thermo Scientific) before being snap frozen in cold 2-methyl butane (Thermo Scientific) and stored at −80 °C until analyses. […]
Immunohistochemical staining of mouse tumors
Tumors were cut into 7 μm thick sections and mounted on glass slides using Cryotome FSE (Thermo Scientific), dried, and fixed in acetone for 15 min. Tumor sections were rehydrated in PBS for 10 min then incubated with primary antibody diluted in PBS for 1 hour at RT. Antibodies […]
Next, slides were washed 3 times with PBS before incubation with secondary fluorescence-labeled antibody diluted in PBS. After 30 min of incubation, slides were washed with PBS and shielded with a DAPI -containing mounting medium. Images were made using a Hamamatsu NanoZoomer Digital slide scanner 2.0HT (Hamamatsu Photonics, New Jersey, […]

[3] = system: KPC (LSL-Kras^G12D/+; LSL-Trp53^R172H/+; Pdx1-Cre) PDAC tumors; assay: Efficacy in genetically engineered KPC mouse PDAC model; type: in vivo, mice; conditions: isolated tumors, n = 6
Method: LSL-Kras^G12D/+; LSL-Trp53^R172H/+; Pdx1-Cre (KPC) mice were bred and maintained, on a mixed background, at the CRUK Scotland Institute. Mice were palpated until an abdominal tumor was detected (between 12 and 28 weeks of age) and were then imaged under anesthesia by 3D ultrasound imaging using the VisualSonics Vevo 3100 system with the MX550D transducer (FujiFilm). Following confirmation of PDAC of 3–6 mm, mice of both sexes were enrolled on treatment with cyAV3.3 25 mg/kg i.p. b.i.w. and gemcitabine (100 mg/kg i.p. b.i.w., n = 6). No mice were excluded from the study. Mice treated with gemcitabine alone were used as control group (n = 6). Follow-up imaging to monitor tumor volume was performed weekly until endpoint was reached (moderate symptoms: abdominal distension, loss of body conditioning, jaundice, hunching, or reduced movement). Upon post-mortem, gross pathology was examined and PDAC and organs harvested and fixed in 10% neutral buffered formalin prior to paraffin embedding and sectioning for histological and IHC analysis. Kaplan–Meier and Log-Rank analysis was used for statistical assessment of survival. Analysis of ultrasound images was performed by researchers blinded to treatment arm using VisualSonics VevoLab software (version 3.1.1). In 3D mode, stacked images of the tumor were imported, and tumor border annotated, allowing a 3D volume analysis.

[4] = system: hPSCs; assay: Cell viability, Alamar blue assay; type: cell-based, human
Method: We investigated the inhibitory effect of both cyclic and linear peptides on PSC activation and signaling. To achieve this, PSCs were seeded and treated with TGF-β and peptides for 48 h (protein expression) or 24 h (gene expression). We also tested the effect of the peptide on the cell viability using Alamar blue assay and found no toxicity (Supporting Information Fig. S3A). […] To quantitate that, we performed Western blot analysis and confirmed the observed effect via immunostaining (Fig. 2B and C; Fig. S3B). The details of the antibodies used can be found in Supporting Information Table S2. […] After obtaining these effects, we focused on cyAV3.3 and examined its inhibitory effects on TGF-β1-stimulated PSCs using qPCR and an RT[2] profiler PCR array for ECM and adhesion receptors (Fig. 2D). […] The details of primers for all genes can be found in Supporting Information Table S3. […] In contrast, cyAV3.3 induced the gene expression of ECM-degrading proteins such as MMP10 and ADAMTS-13 (Supporting Information Fig. S4).

[5] = system: hPSC activated with TGF-β; assay: Inhibition of TGF-β-induced PSC activation (immunocytochemical staining, Western blot); type: cell-based, human; conditions: 5 ng/mL TGF-β, 48 h, peptides at 20 and 50 μmol/L, immunostaining and Western blot
Method: secondary peroxidase labeled antibody was added and incubated for 1 h at RT. The HRP signal was developed using standard chemiluminescence kit and the signal was measured.
To evaluate the stability, 20 µmol/L peptide was incubated in 50% human plasma at biological temperature 37 °C for 1, 2, and 24 h. After incubation, plasma was precipitated by adding equal volume of 4% trichloroacetic acid (TCA) and rested on ice for 10 min. As control (or 0h), precipitation was performed immediately after mixing the peptide and plasma. Supernatant was collected after centrifugation at 13,300 × g and assessed using reversed phase high performance liquid chromatography (HPLC) with 5%, 95%, and 99.9% acetonitrile in de-gassed water with 0.1% trifluoroacetic acid as eluents. The remaining peptide was analyzed at a wavelength 280 nm.
Quantitative real-time PCR
To examine the effect of peptides on the gene expression of hPSC activation markers, cells were seeded into a 12 well plate at a seeding density of 50,000 cells/well. After overnight incubation, cells were starved for 24 h, then treated with human recombinant 5 ng/mL TGF-β (Peprotech, Hamburg, Germany) and […] peptide. After 24 h of the incubation, cells were lysed and total RNA was isolated using GenElute™ Mammalian Total RNA Miniprep Kit (Sigma–Aldrich) and the RNA concentration was measured using a NanoDrop® ND-1000 Spectrophotometer (Thermo Scientific, Waltham, USA). cDNA was synthesized with iScript™ cDNA Synthesis Kit (BioRad, Veenendaal, The Netherlands), and 10 ng cDNA was used for each PCR reaction. […] Quantitative real time PCR was performed with 2× SensiMix SYBR and Fluoroscein Kit (Bioline GmbH, Luckenwalde, Germany) using a BioRad CFX384 Real-Time PCR detection system (BioRad). […]
To evaluate the effect of peptides on the protein expression of hPSC activation markers, hPSCs were seeded into a 12 well plate at seeding density 50,000 cells/well. […] Proteins were detected with […]
medium. […] Images were analyzed using […]
secondary fluorescence-labeled antibody diluted in PBS. […]

[6] = system: TGF-β treated PSCs; assay: Cell adhesion competition study (PSC attachment to FN-coated plate, crystal violet); type: cell-based, human; conditions: 50 μmol/L peptide, 30 min pre-incubation 37 °C, 1 h attachment, crystal violet absorbance 600 nm, n = 3
Method: To analyze the interaction of PSC and FN, a 96 suspension well plate was coated with 100 μL FN (Advanced Biomatrix, Carlsbad, CA, USA) at 1 μg/mL by overnight incubation at 4 °C. Next, the plate was washed with DPBS (Lonza) and blocked with 5% bovine serum albumin (BSA) in DPBS for at least 1 h at RT. In the meantime, a cell suspension of 200,000 cells/mL of TGF-β treated PSCs in DPBS with 2 mmol/L Ca^2+ and 2 mmol/L Mg^2+ was treated with 50 μmol/L AV3.3 or cyAV3.3 and incubated for 30 min at 37 °C. After washing the plate with DPBS, 100 μL cell suspension was added to each well and then set to rest for 1 h at RT. The plate was then washed with DPBS to remove unattached cells. […] Next, cells were stained with 0.1% (w/v) crystal violet (Sigma) in 25% methanol at RT. After 20 min, cells were washed with water and lysed with 0.5% (w/v) SDS. The degree of cell attachment was measured by the absorbance of the crystal violet at 600 nm using Tecan Infinite M200 plate reader (Tecan, Mannendorf, Switzerland). In other plate, cells were washed with DPBS after fixation and then stained with DAPI. Images were developed using EVOS fluorescence microscope (Thermo Scientific).

Nc1ccn([C@@H]2O[C@H](CO)[C@@H](O)C2(F)F)c(=O)n1 [gemcitabine]
spheroid growth [1]: reduced the growth of both homo- and hetero-spheroids
reduction of tumor size / tumor growth [2]: 60%
collagen deposition (Sirius red) in KPC tumors [3]: significantly induced collagen deposition

RYYRATY [AV3.3]
effect on cell viability [4]: no toxicity
inhibition of PSC activation by TGF-β1 (expression of α-SMA and collagen-1) [5]: inhibited the activation of PSCs

cyclo(GYYTRRAYK) [scr, scrambled cyclic peptide control, reference compound]
blocking of the binding of PSC to FN [6]: did not show any blocking
